ChEMBL document CHEMBL5465560, “Selectivity Literature for EUbOPEN Chemogenomic Library” (2024)
One block for each compound: values may come before it.

Key:
[1] = biological target: Ribosomal protein S6 kinase alpha-1 (Homo sapiens, UniProt Q15418); assay: Selectivity interaction (ActivX KiNativ screen (kinase selectivity in THP-1 cell lysates)) EUB0000639a RPS6KA1; type: subcellular; settings: lysate, at 1 µM
[2] = biological target: Dual specificity protein kinase CLK1 (Homo sapiens, UniProt P49759); assay: Selectivity interaction (Kinase panel (DSF assay)) EUB0001489b CLK1
[3] = biological target: T1, Serine/threonine-protein kinase TAO2 (Homo sapiens) (UniProt Q9UL54); assay: Selectivity interaction (Kinase panel (literature)) EUB0001199aCl TAOK2; settings: at 1 µM
T1 sequence (whole entry): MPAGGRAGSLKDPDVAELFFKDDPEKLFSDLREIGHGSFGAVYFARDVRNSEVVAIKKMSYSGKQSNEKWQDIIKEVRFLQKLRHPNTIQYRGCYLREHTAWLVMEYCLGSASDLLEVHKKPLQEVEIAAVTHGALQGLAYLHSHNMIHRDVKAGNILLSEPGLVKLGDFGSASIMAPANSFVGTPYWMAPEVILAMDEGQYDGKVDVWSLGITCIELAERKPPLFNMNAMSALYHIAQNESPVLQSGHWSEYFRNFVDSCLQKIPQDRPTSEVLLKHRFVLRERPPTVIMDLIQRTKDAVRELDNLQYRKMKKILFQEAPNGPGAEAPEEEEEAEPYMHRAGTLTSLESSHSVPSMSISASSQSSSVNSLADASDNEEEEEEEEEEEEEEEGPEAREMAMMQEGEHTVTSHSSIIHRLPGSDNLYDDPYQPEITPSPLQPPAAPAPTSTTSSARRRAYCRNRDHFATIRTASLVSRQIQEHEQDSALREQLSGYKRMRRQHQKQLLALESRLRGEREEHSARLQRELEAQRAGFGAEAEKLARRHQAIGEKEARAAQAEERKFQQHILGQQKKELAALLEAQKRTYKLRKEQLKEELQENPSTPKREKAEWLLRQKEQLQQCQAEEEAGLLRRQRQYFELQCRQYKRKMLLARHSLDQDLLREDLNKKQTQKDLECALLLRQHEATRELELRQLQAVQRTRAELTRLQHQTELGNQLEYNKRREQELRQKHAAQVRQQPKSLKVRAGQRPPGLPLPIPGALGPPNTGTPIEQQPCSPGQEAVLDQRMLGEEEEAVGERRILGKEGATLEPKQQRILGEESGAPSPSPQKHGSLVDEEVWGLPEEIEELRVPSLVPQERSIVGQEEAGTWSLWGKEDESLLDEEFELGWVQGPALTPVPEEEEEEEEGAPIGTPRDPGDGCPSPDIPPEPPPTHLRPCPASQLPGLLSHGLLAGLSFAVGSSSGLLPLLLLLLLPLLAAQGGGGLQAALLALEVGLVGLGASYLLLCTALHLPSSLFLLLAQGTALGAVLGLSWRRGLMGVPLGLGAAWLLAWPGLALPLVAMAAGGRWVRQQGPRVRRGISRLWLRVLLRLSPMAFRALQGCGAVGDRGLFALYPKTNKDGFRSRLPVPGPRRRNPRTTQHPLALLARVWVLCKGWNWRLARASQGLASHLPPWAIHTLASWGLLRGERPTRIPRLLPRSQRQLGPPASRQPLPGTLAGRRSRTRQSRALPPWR

[4] = biological target: Serine/threonine-protein kinase pim-2 (Homo sapiens, UniProt Q9P1W9); assay: Selectivity interaction (SelectScreen profiling (Invitrogen)) EUB0000607a PIM2; settings: at 2 µM
[5] = biological target: T2, Mitogen-activated protein kinase kinase kinase 12 (Homo sapiens) (UniProt Q12852); assay: Selectivity interaction (KinomeScan (DiscoverX)) EUB0000666a MAP3K12; settings: at 10 µM
T2 sequence (whole entry): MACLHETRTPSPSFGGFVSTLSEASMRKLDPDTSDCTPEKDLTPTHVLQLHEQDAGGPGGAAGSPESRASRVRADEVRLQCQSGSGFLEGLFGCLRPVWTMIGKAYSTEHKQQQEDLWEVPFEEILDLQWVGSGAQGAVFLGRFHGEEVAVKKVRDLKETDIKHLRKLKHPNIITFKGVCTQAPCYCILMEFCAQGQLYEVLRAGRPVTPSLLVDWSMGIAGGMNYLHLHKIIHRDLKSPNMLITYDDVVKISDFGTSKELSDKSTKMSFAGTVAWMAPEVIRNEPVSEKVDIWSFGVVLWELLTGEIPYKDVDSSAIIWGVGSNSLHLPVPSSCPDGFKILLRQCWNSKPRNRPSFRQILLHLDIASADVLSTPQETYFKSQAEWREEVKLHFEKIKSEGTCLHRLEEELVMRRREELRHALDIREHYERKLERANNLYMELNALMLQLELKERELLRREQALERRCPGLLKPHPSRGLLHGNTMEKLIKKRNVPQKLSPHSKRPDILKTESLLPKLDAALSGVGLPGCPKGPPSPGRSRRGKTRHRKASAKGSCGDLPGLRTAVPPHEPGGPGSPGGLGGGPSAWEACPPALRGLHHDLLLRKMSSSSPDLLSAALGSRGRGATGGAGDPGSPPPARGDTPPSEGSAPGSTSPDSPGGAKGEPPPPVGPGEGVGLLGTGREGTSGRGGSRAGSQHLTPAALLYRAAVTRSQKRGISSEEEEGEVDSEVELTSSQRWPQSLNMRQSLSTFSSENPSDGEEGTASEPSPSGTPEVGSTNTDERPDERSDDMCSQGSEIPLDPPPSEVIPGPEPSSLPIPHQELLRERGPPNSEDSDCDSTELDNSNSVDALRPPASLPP

Serine/threonine-protein kinase pim-2, sequence (Q9P1W9 whole entry, looked up): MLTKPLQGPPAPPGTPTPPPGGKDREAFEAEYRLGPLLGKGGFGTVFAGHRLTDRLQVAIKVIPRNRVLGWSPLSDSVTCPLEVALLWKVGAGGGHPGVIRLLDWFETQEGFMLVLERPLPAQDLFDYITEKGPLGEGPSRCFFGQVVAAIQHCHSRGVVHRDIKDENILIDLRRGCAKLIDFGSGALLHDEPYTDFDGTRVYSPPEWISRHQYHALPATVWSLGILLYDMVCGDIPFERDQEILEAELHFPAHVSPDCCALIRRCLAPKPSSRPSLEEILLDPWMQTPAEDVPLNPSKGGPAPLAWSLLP
Dual specificity protein kinase CLK1, sequence (P49759 whole entry, looked up): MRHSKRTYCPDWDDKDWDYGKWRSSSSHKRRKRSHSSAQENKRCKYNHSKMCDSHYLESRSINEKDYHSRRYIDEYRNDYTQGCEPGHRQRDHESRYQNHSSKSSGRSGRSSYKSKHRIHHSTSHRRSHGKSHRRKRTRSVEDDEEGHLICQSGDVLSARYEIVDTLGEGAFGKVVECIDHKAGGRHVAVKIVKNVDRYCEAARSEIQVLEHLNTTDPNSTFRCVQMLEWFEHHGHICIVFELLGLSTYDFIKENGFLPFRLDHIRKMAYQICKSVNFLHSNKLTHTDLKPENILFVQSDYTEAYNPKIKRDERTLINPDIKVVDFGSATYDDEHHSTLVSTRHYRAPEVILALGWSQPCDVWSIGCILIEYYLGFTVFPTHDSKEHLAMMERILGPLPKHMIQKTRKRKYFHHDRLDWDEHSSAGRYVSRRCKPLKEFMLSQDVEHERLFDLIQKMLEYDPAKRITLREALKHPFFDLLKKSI
Ribosomal protein S6 kinase alpha-1, sequence (Q15418 whole entry): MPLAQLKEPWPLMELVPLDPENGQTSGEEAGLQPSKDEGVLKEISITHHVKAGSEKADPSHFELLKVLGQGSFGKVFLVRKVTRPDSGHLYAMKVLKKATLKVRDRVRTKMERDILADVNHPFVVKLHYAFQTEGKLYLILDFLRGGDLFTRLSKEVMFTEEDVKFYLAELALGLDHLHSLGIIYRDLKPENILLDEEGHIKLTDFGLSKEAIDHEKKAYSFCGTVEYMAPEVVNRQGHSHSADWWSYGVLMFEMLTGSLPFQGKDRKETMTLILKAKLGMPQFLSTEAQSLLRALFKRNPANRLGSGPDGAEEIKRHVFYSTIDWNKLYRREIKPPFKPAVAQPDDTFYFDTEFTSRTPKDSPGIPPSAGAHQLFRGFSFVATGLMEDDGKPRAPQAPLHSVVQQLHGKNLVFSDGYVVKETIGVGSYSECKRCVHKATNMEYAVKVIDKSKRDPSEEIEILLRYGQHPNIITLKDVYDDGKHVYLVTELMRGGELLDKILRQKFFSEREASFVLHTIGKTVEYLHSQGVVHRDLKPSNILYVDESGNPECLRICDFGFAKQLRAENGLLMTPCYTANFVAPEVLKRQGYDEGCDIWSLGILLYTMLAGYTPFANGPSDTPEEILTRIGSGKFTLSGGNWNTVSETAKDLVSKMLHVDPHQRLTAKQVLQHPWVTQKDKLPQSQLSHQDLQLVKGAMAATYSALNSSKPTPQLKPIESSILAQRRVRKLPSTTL

SMILES: CC[C@@H]1[C@H](F)C(=O)N[C@@H]1COc1nccc2cc(C(N)=O)c(OC)cc12 [ZIMLOVISERTIB]
% of inhibition [1]: -3.5%

SMILES: CNC(=O)Nc1ccc(-c2nc(N3CC4CCC(C3)O4)c3cnn(C4CCC5(CC4)OCCO5)c3n2)cc1
% of inhibition [4]: 3%

SMILES: O=C(NOC[C@H](O)CO)c1ccc(F)c(F)c1Nc1ccc(I)cc1F
% of control [5]: 78%

Continued, values first:

dTM [2]: 2.9 K
SMILES: CN1CCN(C(=O)c2ccc3cc2OCCOCCNc2ccn4ncc-3c4n2)CC1

% of inhibition [3]: -1%
SMILES: CN1Cc2nccc(-c3cn(C)nc3-c3ccc(F)cc3)c2C1=O
